Converted amounts (≈) assume the structure as drawn.
What was measured:
SW-620 = experiment: Cytotoxicity against human SW620 cells after 3 days by MTT assay; format: functional, cell-based; details: SW-620, 72 h
HepG2 = experiment: Cytotoxicity against human HepG2 cells after 3 days by MTT assay; format: functional, cell-based; details: HepG2, 72 h
BT-474 = experiment: Cytotoxicity against human BT474 cells after 3 days by MTT assay; format: functional, cell-based; details: BT-474, 72 h
[1] = Cytotoxicity against human KATO III cells after 3 days by MTT assay; format: functional, cell-based, KATO III cell; details: 72 h
[2] = Cytotoxicity against human ChaGo cells after 3 days by MTT assay; format: functional, cell-based; details: 72 h

| SMILES | IC50 (SW-620) | IC50 (HepG2) | IC50 (BT-474) | IC50 [1] | IC50 [2] |
| --- | --- | --- | --- | --- | --- |
| C=C1C(=O)O[C@H]2C[C@@H]3[C@@]4(CC[C@]5(C)[C@H]([C@@H](C)CC/C=C(\C)C=O)CC[C@@]35C)C[C@]4(CCC(=O)OC)[C@@H]12 [CORONALOLIDE METHYL ESTER] | 6.19 µg/mL (≈ 12.5 µM) | 6.8 µg/mL (≈ 13.7 µM) | > 10 µg/mL | 8.64 µg/mL (≈ 17.4 µM) | > 10 µg/mL |
| C=C1C(=O)O[C@@H]2C[C@@H]3[C@]4(CC[C@]5(C)[C@@H]([C@H](C)CC/C=C(\C)C=O)CC[C@@]35C)C[C@]4(CCC(=O)O)[C@H]12 [CORONALOLIDE] | 4.98 µg/mL (≈ 10.3 µM) | 6.41 µg/mL (≈ 13.3 µM) | 6.59 µg/mL (≈ 13.7 µM) | 5.85 µg/mL (≈ 12.1 µM) | 5.42 µg/mL (≈ 11.2 µM) |
| COc1cccc2c1C(=O)c1c(O)c3c(c(O)c1C2=O)C[C@@](O)(C(=O)CO)C[C@@H]3O[C@H]1C[C@H](N)[C@H](O)[C@H](C)O1 [DOXORUBICIN] | > 10 µg/mL | 3.36 µg/mL (≈ 6.18 µM) | 8.92 µg/mL (≈ 16.4 µM) | 5.45 µg/mL (≈ 10 µM) | 3.98 µg/mL (≈ 7.32 µM) |
| C=C(CO)[C@@H]1CC[C@H]2[C@]3(CC[C@]4(C)[C@@H]([C@H](C)CCC=C(C)C)CC[C@@]24C)C[C@]13CCC(=O)O [SECAUBRYENOL] | > 10 µg/mL | > 10 µg/mL | > 10 µg/mL | > 10 µg/mL | > 10 µg/mL |
| C=C1C(=O)O[C@@H]2C[C@@H]3[C@]4(CC[C@]5(C)[C@@H]([C@H](C)CC/C=C(\C)CO)CC[C@@]35C)C[C@]4(CCC(=O)OC)[C@H]12 [SOOTEPIN A] | 1.8 µg/mL (≈ 3.61 µM) | 2.9 µg/mL (≈ 5.82 µM) | 5.92 µg/mL (≈ 11.9 µM) | 2.1 µg/mL (≈ 4.21 µM) | 3.97 µg/mL (≈ 7.96 µM) |
| C=C1C(=O)O[C@@H]2C[C@@H]3[C@]4(CC[C@]5(C)[C@@H]([C@H](C)CCC=C(C)C)CC[C@@]35C)C[C@]4(CCC(=O)O)[C@H]12 [SOOTEPIN B] | 5.57 µg/mL (≈ 11.9 µM) | 5.86 µg/mL (≈ 12.5 µM) | 4.98 µg/mL (≈ 10.6 µM) | 3.68 µg/mL (≈ 7.85 µM) | 5.24 µg/mL (≈ 11.2 µM) |
| C=C(CO)[C@@H]1CC[C@@H]2[C@]3(CC[C@]4(C)[C@@H]([C@H](C)CCC=C(C)C)CC[C@@]24C)C[C@]13CCC(=O)OC [SOOTEPIN C] | > 10 µg/mL | 3.49 µg/mL (≈ 7.41 µM) | > 10 µg/mL | 7.79 µg/mL (≈ 16.5 µM) | > 10 µg/mL |
| C=C(CO)[C@@H]1CC[C@@H]2[C@]3(CC[C@]4(C)[C@@H]([C@H](C)CC/C=C(\C)C=O)CC[C@@]24C)C[C@]13CCC(=O)OC [SOOTEPIN D] | > 10 µg/mL | > 10 µg/mL | > 10 µg/mL | 7.35 µg/mL (≈ 15.2 µM) | > 10 µg/mL |
| C=C(C)[C@@H]1CC[C@@H]2[C@]3(CC[C@]4(C)[C@@H]([C@H](C)CCC=C(C)C)CC[C@@]24C)C[C@]13CCC(=O)O [SOOTEPIN E] | 4.22 µg/mL (≈ 9.58 µM) | 3.14 µg/mL (≈ 7.12 µM) | 6.07 µg/mL (≈ 13.8 µM) | 1.91 µg/mL (≈ 4.33 µM) | 5.2 µg/mL (≈ 11.8 µM) |
| C=C1C(=O)O[C@@H]2C[C@@H]3[C@]4(CC[C@]5(C)[C@@H]([C@H](C)CCC=C(C)C)CC[C@@]35C)C[C@]4(CCC(=O)OC)[C@H]12 [TUBIFEROLIDE METHYL ESTER] | 5.78 µg/mL (≈ 12 µM) | 3.41 µg/mL (≈ 7.06 µM) | 5.33 µg/mL (≈ 11 µM) | 4.9 µg/mL (≈ 10.2 µM) | 4.08 µg/mL (≈ 8.45 µM) |

Source: ChEMBL document CHEMBL1153026, “Cytotoxic 3,4-seco-cycloartane triterpenes from Gardenia sootepensis” (J Nat Prod, 2009)
